In US7528235B2, “Multi-functional antibodies” (The Regents of the Univarsity of California, priority 2003, dated 2009):

How the values were obtained:
2D12.5 = assay: relative binding curves of 2D12.5 for Y-DOTA isomers and Y-DOTA molecules with different sidechain locations; set-up: species or system murine; conditions: for relative binding affinity, different sidechain locations: Y-DOTA molecules, FIG. 17; for relative binding affinity, Y-DOTA isomers: coordinated metal Y^3+, FIG. 16
Text: FIG. 16 is a graphical display showing the relative binding curves of 2D12.5 for Y-DOTA isomers and Y-DTPA. 2D12.5 binds both the (R)- and (S)-isomers of 2-(4-nitrobenzyl)-DOTA when the coordinated metal is Y^3+ (the same behavior is expected for the other rare earths). The (S)-isomer confers Λ-helicity, while the (R)-isomer confers Δ-helicity to the acetate arms. […] Y-DOTA (no-sidearm) exists is solution as a racemic mixture of the coordination isomers.
FIG. 17 is a graphical display showing the relative binding curves of Y-DOTA molecules with different sidechain locations. […] Evaluation of the crystal structure seems to indicate that shorter substitutions at this position may bind with higher affinity. Substitutions at other locations may yield reasonably high affinitites as well. The (5-Amino-2-methoxy-phenyl)-carboxymethyl)-DOTA analyzed in this experiment was racemic, so it is not clear which isomer binds with higher affinity. The low pKa of the carboxymethyl proton makes it difficult to prepare a chirally pure molecule.

antibody 2D12.5 = assay: competitive immunoassay (ELISA) of metal-DOTA complexes against immobilized Y-DOTA; type: binding, murine; conditions: 37° C., DOTA analog [S]-2-(p-nitrobenzyl)-DOTA
Text: FIG. 13 is graphical display showing the relative binding of metal-DOTA complexes to antibody 2D12.5. A representative set of competitive binding curves obtained from ELISA experiments described in Example 3 below. Error bars (representing the standard error of the mean) are shown, but are generally smaller than the data points.
Elements plotted in the order Sc (open circle), Lu, Yb, Tm, Er, Ho, Y (open diamond), Dy, Tb, Gd, Eu, Sm, Nd, Pr, Ce, La. ΔΔG values relative to Y-DOTA, set at 0. Error bars represent standard error of the mean.
To determine the metal selectivity of the antibody 2D12.5, a competitive immunoassays was used to measure the binding constants of multiple metal-DOTA complexes relative to Y^3+-DOTA.
We examined the monoclonal antibody 2D12.5, initially developed to bind specifically to Y-DOTA for targeted radiotherapy (see, e.g., Goodwin et al., i Cancer Res. 54: 5937-5946 (1994)), in order to determine the scope of its activity. To assess the metal selectivity of antibody 2D12.5, a competitive immunoassay to measure the binding constants of various metal-DOTA complexes relative to the original Y^3+ complex was developed (FIG. 12). Briefly, 2D12.5 was incubated at 37° C. in the presence of immobilized Y-DOTA and a soluble metal-DOTA competitor. […] Binding was measured by standard methods known to those of skill in the art. […]

Janus-DOTA = conditions: for Janus-DOTA, a bivalent form of DOTA; cited from earlier work
[1] = 24 hours after administration of the bound complex; cited from earlier work
[2] = system: (S) nitrobenzyl-DOTA chelates; conditions: for (S) nitrobenzyl-DOTA chelates; cited from earlier work

For “(5-Amino-2-methoxy-phenyl)-carboxymethyl)-DOTA”, the “relative binding affinity, different sidechain locations” value (2D12.5) was “still sufficiently strong”.

For Gd-DOTA, the “binding strength relative to the original Y^3+ complex (in words)” value (antibody 2D12.5) was “bind more tightly than the original Y^3+ complex” and the “binding strength relative to the original Y^3+ complex (in words)” value (antibody 2D12.5; listed as Gd^3+) was “strongest binders”.

With `O=C(O)CN1CCN(CC(=O)O)CCN(CC(=O)O)C(Cc2ccc([N+](=O)[O-])cc2)CN(CC(=O)O)CC1` (single isomer, unassigned; isomer 2) [(R)-isomer, 2-(4-nitrobenzyl)-DOTA] the “relative binding affinity, Y-DOTA isomers” value (2D12.5) was “affinity decreases less than an order of magnitude”.

In the case of `O=C(O)CN1CCN(CC(=O)O)CCN(CC(=O)O)[C@@H](Cc2ccc([N+](=O)[O-])cc2)CN(CC(=O)O)CC1` (single isomer, unassigned) [(S)-isomer], the “relative binding affinity, different sidechain locations” value (2D12.5) is reported as “clearly stronger” and the “relative binding affinity, Y-DOTA isomers” value (2D12.5) is reported as “preferred isomer for binding”.

B1: 2D12.5: anti-chelate monoclonal antibody that binds metal chelates of DOTA and similar structures (antibody, listed as Mus musculus, V domains shown)
VH: QVKLQESGPGLVQPSQSLSITCTVSGFSLTDYGVHWVRQSPGKGLEWLGVIWSGGGTAYTAAFISRLNIYKDNSKNQVFFEMNSLQANDTAMYYCARRGSYPYNYFDVWGQGTTVTVSS
VL: QAVVTQESALTTSPGETVTLTCRSSTGAVTTSNYANWVQEKPDHLFTGLIGGNNNRPPGVPARFSGSLIGDKAALTIAGTQTEDEAIYFCALWYSNHWVFGGGTRLTVLG
modifications: murine monoclonal antibody 2D12.5 heavy chain variable domain (VH); murine monoclonal antibody 2D12.5 light chain variable domain (VL)
For B1, the “binding constant Ks” value (Janus-DOTA) is listed as “≈ 10^8”, the “2D12.5 bound to metal chelates present” value [1] is listed as 74-96% and the “binding constant Ks” value [2] is listed as “≈ 10^8”.
